For one molecule, cell proliferation results are on record in patent US20240285670A1, “THERAPEUTIC TREATMENT OF TUMORS BY BLOCKING THE HEME SYNTHESIS-EXPORT AXIS” (Università degli Studi di Torino, priority 2021, published 2024).

The subject of the assay is SHSY5Y cells. Put plainly: Proliferation of SHSY5Y cells by crystal violet staining. In kind it is cell-based, human. Particulars: 5 mM ALA at day 0, no medium refresh. The protocol:
(A) Heme content in SHSY5Y cells non-treated (NT) or treated with 5 mM ALA for 15 hours. Values are expressed as pmol heme/mg protein. Data represent mean±SEM, n=3; *=P<0.05. (B, C) qRT-PCR analysis of the expression of ALAS1 (B) and FLVCR1a (C) in SHSY5Y cells non-treated (NT) or treated with 5 mM ALA for 15 hours. Transcript abundance, normalized to beta-actin mRNA expression, is expressed as a fold increase over a calibrator sample. Data represent mean±SEM, n=4. For statistical analyses, an unpaired Student's t-test was used; *p<0.05. (D) qRT-PCR analysis of the expression of ALAS1 in SKCO1 cells untreated (NT) or treated with 5 mM ALA for 24 hours. Transcript abundance, normalized to beta-actin mRNA expression, is expressed as a fold increase over a calibrator sample. Data represent mean±SEM, n=5. […] Band intensities were measured by densitometry and normalized to beta-actin expression. […] (F) Proliferation of SHSY5Y cells assessed by crystal violet staining at different time points (starting from the day after plating, named “day 0”). Treatment with 5 mM ALA occurred at “day 0” and cells were monitored until the end of the experiment without medium refresh. […] (G) SKCO1 cells viability measured by the CellTiter-Fluor Cell Viability Assay (Promega, Madison, WI USA, catalog n°G6080) at different time points, starting from the day after plating (named “day 0”), as a readout of cell proliferation. […]

Molecules are shown by their SMILES.

Turning to `Cl.NCC(=O)CCC(=O)O` [5-ALA, 5-Aminolevulinic acid hydrochloride], the cell proliferation entry is “reduced SHSY5Y cell proliferation”.
